Laboratory results taken from patent publication US20180110711A1, “METHOD OF ENHANCING HAIR GROWTH” (Allergan, Inc., priority 2011, published 2018).

Experiments:
[1] = test system: mouse model for hair growth; assay: Mouse model for hair growth, Study 10-04 (Test One); format: in vivo; details: compared with vehicle or single agents
Source text: A comparison of topical compositions comprising bimatoprost or minoxidil, alone, and the combination of bimatoprost and minoxidil, in a single composition, with the vehicle, for onset of hair growth and full hair growth, in a mouse model for hair growth, gave the results summarized in Table 1, below, and FIG. 5.

[2] = test system: mouse model of hair growth; assay: Mouse model of hair growth, Study 10-06 (Test Two); format: in vivo
Source text: FIGS. 6 through 8 show the results of a separate testing (Test Two) of synergistic composition of the invention in the same mouse model of hair growth, with FIG. 6 being the Vehicle, FIG. 7 being 0.03% Bimatoprost, alone, and FIG. 8 being the synergistic composition, i.e. 0.03% Bimatoprost and 5% Rogaine (minoxidil).

Row | SMILES | full hair growth (in words, comparison) [1] | onset of hair growth (in words, comparison) [1] | full hair growth (in words, comparison) ([2]; compared with vehicle) | onset of hair growth (in words, comparison) ([2]; compared with vehicle or bimatoprost alone)
1 | CCNC(=O)CCC/C=C\C[C@@H]1[C@@H](/C=C/[C@@H](O)CCc2ccccc2)[C@H](O)C[C@@H]1O [BIMATOPROST 0.03%, cyclopentane N-ethyl heptanamide-5-cis-2-(3α-hydroxy-5-phenyl-1-trans-pentenyl)-3,5-dihydroxy, [1α,2α,3α,5α]] | did not obtain the result of full hair growth faster then the vehicle | faster onset of hair growth | did not obtain the result of full hair growth faster then the vehicle | faster onset of hair growth
2 | Nc1cc(N2CCCCC2)nc(N)[n+]1[O-] [MINOXIDIL 5%, minoxidil] | did not obtain the result of full hair growth faster then the vehicle | faster onset of hair growth |  | 
